From article PMC9780888, “4-Isobutylmethcathinone—A Novel Synthetic Cathinone with High In Vitro Cytotoxicity and Strong Receptor Binding Preference of Enantiomers” (Pharmaceuticals, 2022)

Key:
MRC-5 cells = assay: Fluorescence microscopy of cell morphology, MRC-5; assay type: cell-based, human; details: MRC-5, 24-h treatment, 100-500 µM
Excerpt: In addition to the evaluation of IBMcat cytotoxicity in various cell lines, its impact on cell morphology was also examined in CaCo-2 and MRC-5 cells after 24-h treatment. F-actin and cell nuclei were visualized in these cells treated with 100, 300, and 500-µM concentrations of IBMcat and its enantiomers. IBMcat (Figure 7) induced a considerable change in CaCo-2 cell morphology already from 300-µM concentration, the cells were smaller, bore roundish shapes, and grew in clusters when compared to control untreated cells. This could be ascribed to the substantial toxicity of IBMcat manifested already after 24 h at this concentration. No difference was observed between the individual enantiomers.
A total of 1 × 10^5 CaCo-2 and MRC-5 cells were seeded into 35-mm glass-bottom dishes for live-cell imaging ((#1.5, MatTek, USA; Ibidi dishes, Germany). After 16 h, the cells were gently washed with phosphate-buffered saline (PBS; pH 7.4), and then, cultivation media containing 100–500 µM IBMCat was added. Untreated cells and cells treated with the vehicle served as controls. After 24 h of the cell incubation with IBMCat, the cells were gently washed with PBS and then fixed with a 4% solution of formaldehyde (methanol-free, Thermo Fisher, USA) in PBS for 20 min. at 22 °C in the dark. Then, the fixative was discarded, and the cells were washed twice with PBS. […]

dopamine receptor DAR1 = biological target: T1, dopamine receptor DAR1 (Homo sapiens, UniProt P21728); assay: PRESTO-Tango β-arrestin 2 recruitment assay, DAR1; assay type: cell-based; details: HTLA cells
T1 construct: host or cells: HTLA (HEK 293-derived)
Excerpt: However, binding to a specific receptor/transporter and, thus, the mechanism of action of a given cathinone always depends on the specific structure of the evaluated compound [37]. In this study, the binding activity of IBMcat and its enantiomers was verified by PRESTO-Tango (parallel receptor expression and screening via transcriptional output, with transcriptional activation following arrestin-2 translocation) assay using the HTLA cell line stably producing β-arrestin-2 in a fusion with TEV and luciferase production driven by tTA. […] The transcription factor then translocates to the cell nucleus, in which it triggers the transcription of the target gene for luciferase production which can be determined by the light emitted from luciferin conversion to oxyluciferin. Here, the pronounced luminescence was recorded for all DAR1-4 types in HTLA cells treated with IBMCat and its enantiomers (Figure 8). […]
(§1) The transfected HTLA cells were incubated for 24 h, and then 1 × 10^4 cells were seeded per well of a white 96-well clear bottom plate (Brand, Germany) in 40 μL of DMEM with 1% charcoal-stripped FBS (Thermo Fisher Scientific, USA). […] After 5 min., the luminescence was measured using a multi-mode microplate reader SpectraMax iD5 (Molecular Devices, San Jose, CA, USA) measuring the entire wavelength spectrum. All samples were measured in quadruplicates. […]

[1] = biological target: T2, ADRA2C (alpha-2C adrenergic receptor) (Homo sapiens, UniProt P18825); assay: PRESTO-Tango β-arrestin 2 recruitment assay, ADRA2C; assay type: cell-based; details: 500 nM
T2 construct: Tango construct (TEV cleavage site and tTA, as described for the dopamine receptor plasmids); host or cells: HTLA (HEK 293-derived)
Description: The HTLA cell line was used for the PRESTO-Tango β-arrestin recruitment assay. The HTLA cells were provided as a gift from the laboratory of Bryan Roth (Roth Lab, USA). It is a human cell line derived from human embryonic kidney cells (HEK 293) stably expressing β-arrestin in a fusion with the tobacco etch virus protease (TEV) protease and the luciferase gene under the control of the transcription factor tetracycline transcriptional activator (tTA). The HTLA cells were cultured under standard incubation conditions (37 °C, 5% CO2, 95% humidity) in DMEM with 10% FBS. […]
as §1, with “quadruplicates. The data were evaluated by Prism 7 software (GraphPad, […], CA, USA).” for “quadruplicates.”
The error bar represents standard deviation from four replicates. The data were processed and evaluated by GraphPad Prism Software using one-way ANOVA: * p<0.05; ** p<0.01; *** […]

T1 sequence (P21728 whole entry): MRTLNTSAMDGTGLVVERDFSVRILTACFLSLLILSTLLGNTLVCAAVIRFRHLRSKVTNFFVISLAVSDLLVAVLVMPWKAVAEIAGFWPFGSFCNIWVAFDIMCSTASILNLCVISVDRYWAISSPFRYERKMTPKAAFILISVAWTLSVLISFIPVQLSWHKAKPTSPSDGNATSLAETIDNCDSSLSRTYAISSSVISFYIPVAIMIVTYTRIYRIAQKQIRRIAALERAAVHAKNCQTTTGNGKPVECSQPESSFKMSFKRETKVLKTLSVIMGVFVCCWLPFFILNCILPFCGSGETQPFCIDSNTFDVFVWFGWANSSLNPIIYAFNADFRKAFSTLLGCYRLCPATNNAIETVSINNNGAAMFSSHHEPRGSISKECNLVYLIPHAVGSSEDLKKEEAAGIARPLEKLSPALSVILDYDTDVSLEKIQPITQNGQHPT
T2 sequence (P18825 whole entry): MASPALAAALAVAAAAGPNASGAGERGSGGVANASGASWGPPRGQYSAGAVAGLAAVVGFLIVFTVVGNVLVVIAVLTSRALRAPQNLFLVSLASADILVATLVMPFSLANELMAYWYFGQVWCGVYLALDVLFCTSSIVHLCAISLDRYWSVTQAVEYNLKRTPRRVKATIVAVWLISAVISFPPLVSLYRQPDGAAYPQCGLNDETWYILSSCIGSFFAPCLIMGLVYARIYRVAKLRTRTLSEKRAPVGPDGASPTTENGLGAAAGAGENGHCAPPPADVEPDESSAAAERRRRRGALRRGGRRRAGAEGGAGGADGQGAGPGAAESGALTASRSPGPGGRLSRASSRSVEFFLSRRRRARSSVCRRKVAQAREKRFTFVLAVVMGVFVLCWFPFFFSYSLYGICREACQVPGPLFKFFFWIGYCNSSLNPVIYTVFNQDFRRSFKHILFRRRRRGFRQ

**Q.** How did the “cell number compared with control” value (MRC-5 cells) turn out when `CNC(C)C(=O)c1ccc(CC(C)C)cc1.Cl` (centres unmarked) [IBMcat, 4-isobutylmethcathinone hydrochloride] was run?
**A.** considerably lesser cells than in the control

**Q.** And the “effect on cell shape” value (MRC-5 cells)?
**A.** did not induce any shape-related effect

**Q.** What about the “effect on DAR1 (increase in RLU with increasing concentration)” value (dopamine receptor DAR1; 0-500 nM) of the same molecule?
**A.** acted as agonists

**Q.** And the “concentration from which no further increase in RLU was detected (maximum effective concentration)” value (dopamine receptor DAR1; DAR1)?
**A.** 10 nM

**Q.** And the “increase in RLU compared to untreated control” value [1]?
**A.** 3.7 fold
